Data: patent publication US4207311A, “Peptides having analgesic and thermoregulative properties” (The Salk Institute for Biological Studies, priority 1977, dated 1980)
Square brackets hold non-standard residues; d marks the D form. Peptide text beside a SMILES is read from it. pGlu = O=C1CC[C@@H](C(=O)O)N1

Test system: cold exposed rat
Test: hypothermia in cold exposed rats after intracisternal injection (rectal/core temperature)
Type: in vivo
Experimental: Male Sprague-Dawley-CV rats weighing 180-200 grams were housed in temperature and humidity controlled quarters. The rats were fed a standard rat food ration and tap water ad libitum. After being anesthetized with ether, peptides were injected into the cisterna magna of each rat. Ten microliters of a peptide solution containing 1-1000 nanograms of the peptide were injected. Immediately following the injections, the animals were transferred to a cold room maintained at 4° C. Rectal temperatures were recorded with a thermo probe at 30 minute intervals following injection. All experiments were carried out in a randomized block design. Following analyses of variance, differences between the effect of the various peptides were determined. The peptides were dissolved in a buffer composed of 126 mM, NaCl, 6 mM KCl, 1 mM NaH2 PO4, 0.88 mM MgSo4, 1.45 mM CaCl2, and 25 mM HEPES pH 7.2.
Other peptides isolated from anuran skin, i.e., litorin, ranatensin and alytesin, are approximately 1%, 10% and 100% respectively as potent as the peptide described above to lower body temperature of the cold exposed rat.

Row | Compound | potency relative to the peptide of Example I to lower body temperature (cold exposed rat) [%] | potency relative to Neurotensin to produce hypothermia (cold exposed rat (4° C.), graded doses, core temperature 60 minutes following administration)
1 | CSCC[C@H](NC(=O)[C@H](Cc1ccccc1)NC(=O)[C@H](Cc1c[nH]cn1)NC(=O)CNC(=O)[C@@H](NC(=O)[C@H](C)NC(=O)[C@H](Cc1c[nH]c2ccccc12)NC(=O)[C@H](CCC(N)=O)NC(=O)[C@@H]1CCCN1C(=O)[C@@H](NC(=O)[C@@H]1CCC(=O)N1)C(C)C)C(C)C)C(N)=O [ranatensin] ([pGlu]VPQWAVGHFM-NH2) | ~10 | –
2 | CSCC[C@H](NC(=O)[C@H](CC(C)C)NC(=O)[C@H](Cc1cnc[nH]1)NC(=O)CNC(=O)[C@@H](NC(=O)[C@H](C)NC(=O)[C@H](Cc1c[nH]c2ccccc12)NC(=O)[C@H](CCC(N)=O)NC(=O)[C@H](CC(N)=O)NC(=O)CNC(=O)[C@H](CC(C)C)NC(=O)[C@H](CCCN=C(N)N)NC(=O)[C@H](CCC(N)=O)NC(=O)[C@@H]1CCC(=O)N1)C(C)C)C(N)=O [the peptide of the invention] | – | at least 10^4 times
